What was measured:
CD62L = CD62L staining 2 hours post-thaw (FACS); assay type: cell-based; conditions: culturing in 7 mM NAM; 2 hours post-thaw (FIG. 2)
Method: The cells were thawed, and 2 hours post-thaw were sampled for staining against CD62L and analyzed by FACS. Assays for adhesion and migration molecules such as CD62L, CXCR-4, CD49e and the like, important for homing/engraftment and retention of cells in transplantation, are well known in the art. CD62L expression in a cell can be assayed, for example, by flow cytometry, immunodetection, quantitative cDNA amplification, hybridization and the like. In one embodiment, CD62L expression is detected in different populations of NK cells by exposure of the cells to a fluorescent-tagged specific anti-human CD62L monoclonal antibody [e.g., CD62L PE, Cat. No. 304806 from BioLegend (San Diego, CA, USA)], and sorting of the cells by fluorescent activated cell sorting (FACS). After 2 weeks in culture according to the methods of the invention, a modified procedure using inactivated autologous CD3+ cells as feeder, supplemented with OKT3 and NAM, led to an improved fold expansion, which increased the total number of viable cells obtained at harvest. The functionality of the cells in killing and ADCC was assessed by combination of NK cells with target cells BL2 (Burkitt lymphoma cell line)—at different ratios. […]

CD200R = CD200R immunophenotyping of expanded NK cells (FACS); assay type: cell-based; conditions: 2 weeks culture without NAM or with 2.5, 5 or 7 mM NAM (FIG. 3)
Method: Cells were cultured for 2 weeks without NAM and with 2.5 mM, 5 mM NAM or 7 mM NAM. Samples for staining against CD200R were analyzed by FACS.
The immune checkpoint receptors, CD200R and Programmed Death receptor-1 (PD-1), are exploited by tumor cells which overexpress their ligands to suppress lymphocytes anti-tumor activity. The effect of expansion with nicotinamide (NAM) on expression of immune checkpoint receptors in NK cells was assessed.

NC(=O)c1cccnc1 [NAM, nicotinamide]
expression of CD62L (CD62L): increased expression of CD62L | expression of CD200R on expanded NK cells (CD200R): down regulated

Reference: patent publication US20250283052A1, “THERAPEUTIC NK CELL POPULATIONS” (Gamida Cell Ltd., priority 2021, published 2025)
